These results are taken from patent US20260184663A1, “INDENE COMPOUNDS, PHARMACEUTICAL COMPOSITIONS THEREOF, AND THEIR THERAPEUTIC APPLICATIONS” (NucMito Pharmaceuticals co. Ltd., priority 2022, published 2026).

Read-outs that look alike come from different tables or passages of the source.

Holding throughout (type): cell-based
Test [1] has as its system MDA-MB-231 (breast cancer). The test is described as follows: Antiproliferative activity (CCK-8 cell viability), MDA-MB-231. The settings on record: Homo sapiens, 72 h; for inhibition at 3.3 µM: Compound concentration: 3.3 μM; for inhibition at 10 µM: Compound concentration: 10 μM; for inhibition at 30 µM: Compound concentration: 30 μM. In outline:
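In this CCK-8 viability assay, MDA-MB-231 cells maintained in Dulbecco's modified Eagle's medium containing 10% fetal bovine serum were placed in 96-well plates (2,000-5,000 cells/well) and treated with compound for 72 h at 37° C. A 4 h incubation with 10 μL CCK-8 followed, plates were read at 450 nm, and viability was expressed against DMSO vehicle wells across replicates.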

In a further test the test system is HepG2 (liver cancer). Put plainly: Antiproliferative activity (CCK-8 cell viability), HepG2. The note with it: Homo sapiens, 72 h, read-out: Antiproliferative activity in cancerous cells, HepG2 (inhibition of cell growth); for inhibition at 3.3 µM: Compound concentration: 3.3 μM; for inhibition at 10 µM: Compound concentration: 10 μM; for inhibition at 30 µM: Compound concentration: 30 μM. In outline:
(§1)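 Cells were seeded at 2,000-5,000/well (HeLa in MEM, HepG2 and SW480 in DMEM, A549 in F-12K, all with 10% FBS) and treated with compound at 3.3, 10 or 30 μM for 72 h at 37° C. CCK-8 was added for 4 h, absorbance was read at 450 nm, and viability was expressed relative to DMSO-treated wells.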

The test system of a further test is SW480 (colon cancer). The test is described as follows: Antiproliferative activity (CCK-8 cell viability), SW480. The settings on record: Homo sapiens, 72 h, read-out: Antiproliferative activity in cancerous cells, SW480 (inhibition of cell growth); for inhibition at 3.3 µM: Compound concentration: 3.3 μM; for inhibition at 10 µM: Compound concentration: 10 μM; for inhibition at 30 µM: Compound concentration: 30 μM. In outline: as §1

The subject of test [2] is B16F10 (malignant melanoma). Put plainly: Antiproliferative activity (CCK-8 cell viability), B16F10. The note with it: Mus musculus, 72 h, read-out: Antiproliferative activity in cancerous cells, B16F10 (inhibition of cell growth); for inhibition at 3.3 µM: B16-F10, Compound concentration: 3.3 μM; for inhibition at 10 µM: B16-F10, Compound concentration: 10 μM; for inhibition at 30 µM: B16-F10, Compound concentration: 30 μM. In outline: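 Attached B16F10 cells in 96-well plates were incubated with compound at 37° C for 72 h, followed by 10 μL CCK-8 reagent per well and a further 4 h incubation. A multi-well plate reader measured absorbance at 450 nm. Percent viability across replicates was calculated against DMSO vehicle-treated cells.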

Test [3] has as its system A431 (epidermoid carcinoma). Put plainly: Antiproliferative activity (CCK-8 cell viability), A431. The settings on record: Homo sapiens, 72 h, read-out: Antiproliferative activity in cancerous cells, A431 (inhibition of cell growth); for inhibition at 3.3 µM: A-431, Compound concentration: 3.3 μM; for inhibition at 10 µM: A-431, Compound concentration: 10 μM; for inhibition at 30 µM: A-431, Compound concentration: 30 μM. The method in brief: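 Cell viability of compound-treated A431 cells was measured with a Cell Counting Kit-8. Each well received 10 μL of CCK-8 after 72 h of compound exposure, followed by 4 h incubation at 37° C. and a 450 nm plate-reader measurement. Percent viability was calculated relative to DMSO controls across replicates.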

The subject of test [4] is A549 (lung adenocarcinoma). The test is described as follows: Antiproliferative activity (CCK-8 cell viability), A549. The note with it: Homo sapiens, 72 h, read-out: Antiproliferative activity in cancerous cells, A549 (inhibition of cell growth); for inhibition at 3.3 µM: Compound concentration: 3.3 μM; for inhibition at 10 µM: Compound concentration: 10 μM; for inhibition at 30 µM: Compound concentration: 30 μM. The method in brief: as §1

In the next test the test system is HeLa (cervical cancer). Put plainly: Antiproliferative activity (CCK-8 cell viability), HeLa. The note with it: Homo sapiens, 72 h, read-out: Antiproliferative activity in cancerous cells, HELA (inhibition of cell growth); for inhibition at 3.3 µM: Compound concentration: 3.3 μM; for inhibition at 10 µM: Compound concentration: 10 μM; for inhibition at 30 µM: Compound concentration: 30 μM. The method in brief:
as §1

[5] abbreviates: read-out: Antiproliferative activity in cancerous cells, MDA-MB-231 (inhibition of cell growth).

Turning to `CC1=C(CC(=O)O)c2cc(Cl)ccc2/C1=C\c1cccc(Oc2ccc(Cl)cc2)c1` [C93, (Z)-2-(5-Chloro-1-(3-(4-chlorophenoxy)benzylidene)-2-methyl-1H-inden-3-yl)acetic acid], the inhibition at 3.3 µM was under 30% in test [1] (setting [5]); at least 50% with HepG2 (liver cancer); under 30% with SW480 (colon cancer); at least 50% in test [2]; at least 50% in test [3]; under 30% in test [4]. Moreover, in the test with HeLa (cervical cancer), the inhibition at 3.3 µM was under 30%. In addition, the inhibition at 10 µM in test [1] (setting [5]) was at least 50%; with HepG2 (liver cancer), at least 50%; in the test on SW480 (colon cancer) it was 30 to 50%; in test [2] it was at least 50%; in test [3] it was at least 50%; in test [4], at least 50%. The inhibition at 10 µM with HeLa (cervical cancer) was at least 50%. In addition, the inhibition at 30 µM in test [1] (read-out: Antiproliferative activity in cancerous cells, MDA-MB-231) was under 30%.
As for `CC1=C(CC(=O)O)c2cc(F)ccc2/C1=C\c1ccc(Oc2ccc(Cl)cc2Cl)cc1` [C66, (Z)-2-(1-(4-(2,4-Dichlorophenoxy)benzylidene)-5-fluoro-2-methyl-1H-inden-3-yl)acetic acid], the inhibition at 3.3 µM in test [1] (setting [5]) is under 30%; with HepG2 (liver cancer), at least 50%; with SW480 (colon cancer), under 30%; in test [2] it was under 30%; in test [3], at least 50%; in test [4] it was 30 to 50%. Moreover, the inhibition at 3.3 µM with HeLa (cervical cancer) is at least 50%. The inhibition at 10 µM in test [1] (setting [5]) is at least 50%; in the test with HepG2 (liver cancer), at least 50%; with SW480 (colon cancer) it was under 30%; in test [2], at least 50%; in test [3] it was at least 50%; in test [4], at least 50%. Further, the inhibition at 10 µM in the test with HeLa (cervical cancer) was at least 50%.
In the case of `CC1=C(CC(=O)O)c2cc(F)ccc2/C1=C\c1ccc(OC2CCC(F)(F)CC2)cc1` [C205, (Z)-2-(1-(4-((4,4-Difluorocyclohexyl)oxy)benzylidene)-5-fluoro-2-methyl-1H-inden-3-yl)acetic acid], the inhibition at 3.3 µM was at least 50% in test [1] (setting [5]); under 30% in the test on HepG2 (liver cancer); 30 to 50% with SW480 (colon cancer); at least 50% in test [2]; under 30% in test [3]; under 30% in test [4]. Further, the inhibition at 3.3 µM with HeLa (cervical cancer) was under 30%. Moreover, the inhibition at 10 µM is at least 50% in test [1] (setting [5]); 30 to 50% with HepG2 (liver cancer); 30 to 50% with SW480 (colon cancer); at least 50% in test [2]; 30 to 50% in test [3]; at least 50% in test [4]. Further, in the test on HeLa (cervical cancer), the inhibition at 10 µM was at least 50%. In addition, the inhibition at 30 µM (in test [1] (setting [5]); in the test on HepG2 (liver cancer); in the test with SW480 (colon cancer); in test [2]; in test [3]; in test [4]) was at least 50% each time. The inhibition at 30 µM in the test on HeLa (cervical cancer) is at least 50%.
With `CC1=C(CC(=O)O)c2cc(F)ccc2/C1=C/c1ccc(-c2ccc(Cl)cc2)cc1` [E22, (E)-2-(1-((4′-Chloro-[1,1′-biphenyl]-4-yl)methylene)-5-fluoro-2-methyl-1H-inden-3-yl)acetic acid], the inhibition at 3.3 µM in test [1] (setting [5]) is at least 50%; with HepG2 (liver cancer) it was at least 50%; in the test with SW480 (colon cancer), 30 to 50%; in test [2], at least 50%; in test [3], 30 to 50%; in test [4], 30 to 50%. Besides, in the test with HeLa (cervical cancer), the inhibition at 3.3 µM was in the range of 30 to 50%. In addition, the inhibition at 10 µM (in test [1] (setting [5]); with HepG2 (liver cancer); with SW480 (colon cancer); in test [2]; in test [3]; in test [4]) was at least 50% in each case. In addition, the inhibition at 10 µM in the test with HeLa (cervical cancer) is at least 50%. In addition, the inhibition at 30 µM (in test [1] (setting [5]); in the test on HepG2 (liver cancer); in the test with SW480 (colon cancer); in test [2]; in test [3]; in test [4]) was at least 50% in each case. Further, the inhibition at 30 µM in the test with HeLa (cervical cancer) was at least 50%.
Regarding `CC1=C(CC(=O)O)c2cc(F)c(F)cc2/C1=C/c1ccc(Oc2ccc(F)cc2)cc1` [E23, (E)-2-(5,6-Difluoro-1-(4-(4-fluorophenoxy)benzylidene)-2-methyl-1H-inden-3-yl)acetic acid], the inhibition at 3.3 µM is at least 50% in test [1] (setting [5]); under 30% in the test on HepG2 (liver cancer); under 30% in the test on SW480 (colon cancer); under 30% in test [2]; 30 to 50% in test [3]; under 30% in test [4]. For the same compound, the inhibition at 3.3 µM in the test with HeLa (cervical cancer) is 30 to 50%. Moreover, the inhibition at 10 µM in test [1] (setting [5]) was at least 50%; in the test with HepG2 (liver cancer), under 30%; in the test with SW480 (colon cancer) it was at least 50%; in test [2], at least 50%; in test [3], at least 50%; in test [4], under 30%. For the same compound, in the test with HeLa (cervical cancer), the inhibition at 10 µM is at least 50%. Also, the inhibition at 30 µM (in test [1] (setting [5]); in the test with HepG2 (liver cancer); in the test on SW480 (colon cancer); in test [2]; in test [3]; in test [4]) was at least 50% throughout. Further, the inhibition at 30 µM in the test with HeLa (cervical cancer) was at least 50%.
For the compound `CC1=C(CC(=O)O)c2cc(F)ccc2/C1=C\c1ccc(OC2CCNCC2)cc1` [C202, (Z)-2-(5-Fluoro-2-methyl-1-(4-(piperidin-4-yloxy)benzylidene)-1H-inden-3-yl)-acetic acid], the inhibition at 3.3 µM is under 30% in test [1] (setting [5]); under 30% with HepG2 (liver cancer); under 30% in the test with SW480 (colon cancer); under 30% in test [2]; at least 50% in test [3]; under 30% in test [4]. Moreover, in the test on HeLa (cervical cancer), the inhibition at 3.3 µM was under 30%. Further, the inhibition at 10 µM in test [1] (setting [5]) was under 30%; in the test with HepG2 (liver cancer), under 30%; with SW480 (colon cancer), under 30%; in test [2] it was under 30%; in test [3], at least 50%; in test [4], under 30%. Besides, the inhibition at 10 µM in the test on HeLa (cervical cancer) lay in the range of 30 to 50%. Further, the inhibition at 30 µM is at least 50% in test [1] (setting [5]); at least 50% with HepG2 (liver cancer); under 30% in the test on SW480 (colon cancer); at least 50% in test [2]; at least 50% in test [3]; 30 to 50% in test [4]. In the test with HeLa (cervical cancer), the inhibition at 30 µM is at least 50%.
